According to PMC12128972, “TYRA-300, an FGFR3-selective inhibitor, promotes bone growth in two FGFR3-driven models of chondrodysplasia” (JCI Insight, 2025):
Several values for one entry are separate records, joined by “and”; a condition that tells them apart may be missing. Equal values may be shown once.

Test system: skull and foramen magnum of Fgfr3^Y367C/+ mice
Assay: Fgfr3Y367C/+ mice: skull and foramen magnum (calipers, microCT), grade of synchondroses
Format: in vivo, mouse
Set-up: source data of Figure 3I (sheet "3I"): grade of synchondroses: scale not given here
Procedure: Another hallmark of ACH that is observed in Fgfr3^Y367C/+ mice is change in the size and shape of the skull and foramen magnum ([28]). The size of the foramen magnum is of particular clinical importance, as its reduced size can cause compression of the brain stem and spinal cord, resulting in significant morbidity and mortality in infants with ACH ([37]–[40]). To study the effects of TYRA-300 on the skull and foramen magnum in Fgfr3^Y367C/+ mice, macroscopic analyses were performed and μCT images were taken of the mice at the end of study. Changes in the shape of the skull are visible on μCT images in TYRA-300–treated Fgfr3^Y367C/+ mice compared with vehicle-treated Fgfr3^Y367C/+ mice (Figure 3A). […] The skull was further analyzed using the μCT images, which enabled measurement of the anteroposterior length and nasio-occipital length of the skull.
The μCT images also indicate that treatment with TYRA-300 modified the synchondroses at the base of the skull (Figure 3, I and J). […] Overall, the improvement in the size and shape of the foramen magnum with TYRA-300 has important clinical implications for foramen magnum stenosis.
Whole body x-ray images were taken of all animals by Faxitron specimen radiography MX-20 (Faxitron X-Ray LLC) following terminal sacrifice. The length of the L4–L6 lumbar vertebra segment was also measured for each animal using calipers, and the height of the L5 vertebral body was measured from Alcian blue/Sirius red images. Long bones and the skull were then excised, and their dimensions were measured using calipers (VWRi819-0013, VWR International). The transverse and sagittal diameters of the foramen magnum were also measured using calipers for the Fgfr3^Y367/+ model, and measured using the μCT images for the Fgfr3^N534K/+ model.
The heads of all mice were isolated, and skin was stripped before being placed in 70% ethanol at 4°C. μCT images of the skulls were measured on the Skyscan-1272 (Bruker) with the following parameters: 10 μm resolution, 680 ms exposure, 70 kV, 142 μA, and 0.350° rotation step. The μCT data were analyzed using DataViewer and CTAn software (version 1.20.8) to perform postprocessing techniques in 3D. The nasio-occipital length and anteroposterior length of the skull were measured using 2D μCT images.

[1] = 1.2 mg/kg s.c. daily for 15 days
[2] = 1.2 mg/kg s.c. daily for 15 days, macroscopic
[3] = 1.2 mg/kg s.c. daily for 15 days, microCT

## C[C@@H](Oc1ccc2[nH]nc(-c3ccc(N4CC5(C4)CN(S(C)(=O)=O)C5)nc3)c2c1)c1c(Cl)cncc1Cl [TYRA-300]
[1]
  increase in sagittal diameter of the foramen magnum vs vehicle: 9.28%
  increase in transverse diameter of the foramen magnum vs vehicle: 13.05%
1.2 mg/kg s.c. daily for 15 days, all treated mice
  grade of synchondroses (intraoccipital synchondrosis anterior): II or III
[2]
  increase in skull length vs vehicle: 10.08%
  increase in skull width vs vehicle: 3.74%
[3]
  increase in anteroposterior length of the skull vs vehicle: 8.92%
  increase in area of the foramen magnum vs vehicle: 25.17%
  increase in nasio-occipital length of the skull vs vehicle: 7.87%
Fgfr3Y367C/+ mice + TYRA-300, individual animal values
  source data of Figure 3I (sheet "3I"): grade of synchondroses: 3 and 2.5
